Where a SMILES comes first, the peptide text is derived from it. Bridges are numbered along the chain shown (N, C = ends). [ ]: non-standard residue; d: D form. Trp(6-Cl) = N[C@@H](Cc1c[nH]c2cc(Cl)ccc12)C(=O)O; R8 = C=CCCCCCC[C@@](C)(N)C(=O)O; S5 = C=CCCC[C@](C)(N)C(=O)O; Ac3c = NC1(C(=O)O)CC1
Columns and labels:
HDMx = HDMx (Homo sapiens, UniProt O15151); test: FP Competition Blinding Assay | HDMx IC50 (nM)
MDM2 = MDM2 (Homo sapiens, UniProt Q00987); test: Competitive fluorescence polarization assay for MDM2; format: binding; settings: Table 26B, competitive FP; for Ki: read-out: Ki (MDM2)
MDM2, sequence (Q00987 1-125): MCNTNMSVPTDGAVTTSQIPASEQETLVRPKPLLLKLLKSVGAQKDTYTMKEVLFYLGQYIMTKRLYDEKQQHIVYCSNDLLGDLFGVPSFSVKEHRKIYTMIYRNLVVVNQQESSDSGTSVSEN
Experimental: Dilute 1 mM (in 100% DMSO) of FAM labeled linear peptide with DMSO to 100 μM (dilution 1:10). Then, dilute from 100 μM to 10 μM with water (dilution 1:10) and then dilute with FP buffer from 10 μM to 40 nM (dilution 1:250). This is the working solution which will be a 10 nM concentration in well (dilution 1:4). Keep the diluted FAM labeled peptide in the dark until use. • 4. […] Dilute 10 mM (in 100% DMSO) with DMSO to 5 mM (dilution 1:2). Then, dilute from 5 mM to 500 μM with H2O (dilution 1:10) and then dilute with FP buffer from 500 μM to 20 μM (dilution 1:25). […] Add 10 μl of 10 nM (4×) of FAM labeled peptide into each well and incubate for 3 hr to read.

MDMX = biological target: T1, MDMX (Homo sapiens, UniProt O15151); test: Competitive fluorescence polarization assay MDMX; format: binding; settings: Table 26B; competitive FP
T1 sequence (O15151 1-125): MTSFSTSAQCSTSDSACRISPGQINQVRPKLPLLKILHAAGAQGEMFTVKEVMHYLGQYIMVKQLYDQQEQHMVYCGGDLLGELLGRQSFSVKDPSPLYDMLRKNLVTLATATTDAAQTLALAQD
Experimental: Dilute MDMX (In-house, 40 kD) into FP buffer (High salt buffer—200 mM NaCl, 5 mM CHAPS, pH 7.5.) to make 300 nM (2×) working stock solution. • 2. Add 20 μl of 300 nM (2×) of protein stock solution into each well of 96-well black HE microplate (Molecular Devices) • 3. Dilute 1 mM (in 100% DMSO) of FAM labeled linear peptide with DMSO to 100 μM (dilution 1:10). Then, dilute from 100 μM to 10 μM with water (dilution 1:10) and then dilute with FP buffer from 10 μM to 40 nM (dilution 1:250). This is the working solution which will be a 10 nM concentration in well (dilution 1:4). Keep the diluted FAM labeled peptide in the dark until use. • 4. […] Dilute 10 mM (in 100% DMSO) with DMSO to 5 mM (dilution 1:2). Then, dilute from 5 mM to 500 μM with H2O (dilution 1:10) and then dilute with FP buffer from 500 μM to 20 μM (dilution 1:25). […] Transfer 10 μl of serial diluted unlabeled peptides to each well which is filled with 20 μl of 300 nM of protein. • 7. Add 10 μl of 10 nM (4×) of FAM labeled peptide into each well and incubate for 3 hr to read.

[1] = test system: Caspase 3 activation in SJSA1 cells; test: Caspase 3 detection assay; format: cell-based; settings: 48 h, Caspase 3 activation over DMSO-treated cells
Experimental: Read on Synergy Biotek multiplate reader for luminescence. Data is analyzed as Caspase 3 activation over DMSO-treated cells.

SJSA-1 cells = test: Cell lysis by peptidomimetic macrocycles (LDH release); format: cell-based; settings: 1 h incubation
Experimental: On the day of the assay, media was exchanged with RPMI 1% FBS media, 90 μl of media per well.
10 mM stock solutions of the peptidomimetic macrocycles were prepared in 100% DMSO.
The negative control (non-lytic) sample was 0.5% DMSO alone and positive control (lytic) samples include 10 uM Melittin and 1% Triton X-100.
Cell plates were incubated for 1 hour at 37° C. After the 1 hour incubation, the morphology of the cells is examined by microscope and then the plates were centrifuged at 1200 rpm for 5 minutes at room temperature. 40 μl of supernatant for each peptidomimetic macrocyle and control sample is transferred to clear assay plates.

HDM2 = HDM2 (Homo sapiens, UniProt Q00987); test: FP Competition Blinding Assay | HDM2 IC50 (nM)
HDM2, sequence (Q00987 whole entry, looked up): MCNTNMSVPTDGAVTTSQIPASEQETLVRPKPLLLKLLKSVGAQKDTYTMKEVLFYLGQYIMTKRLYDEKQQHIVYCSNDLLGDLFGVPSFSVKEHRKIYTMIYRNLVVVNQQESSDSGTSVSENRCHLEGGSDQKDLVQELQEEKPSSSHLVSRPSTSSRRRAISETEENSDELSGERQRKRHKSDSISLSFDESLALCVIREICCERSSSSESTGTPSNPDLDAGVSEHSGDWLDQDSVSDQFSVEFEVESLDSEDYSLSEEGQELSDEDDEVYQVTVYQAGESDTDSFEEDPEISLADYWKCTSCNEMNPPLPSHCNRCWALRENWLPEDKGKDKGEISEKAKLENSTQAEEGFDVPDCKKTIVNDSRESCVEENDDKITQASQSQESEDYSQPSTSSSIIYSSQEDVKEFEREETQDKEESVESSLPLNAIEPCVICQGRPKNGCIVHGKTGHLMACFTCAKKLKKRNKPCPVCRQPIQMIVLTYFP

HDMx, sequence (O15151 whole entry, looked up): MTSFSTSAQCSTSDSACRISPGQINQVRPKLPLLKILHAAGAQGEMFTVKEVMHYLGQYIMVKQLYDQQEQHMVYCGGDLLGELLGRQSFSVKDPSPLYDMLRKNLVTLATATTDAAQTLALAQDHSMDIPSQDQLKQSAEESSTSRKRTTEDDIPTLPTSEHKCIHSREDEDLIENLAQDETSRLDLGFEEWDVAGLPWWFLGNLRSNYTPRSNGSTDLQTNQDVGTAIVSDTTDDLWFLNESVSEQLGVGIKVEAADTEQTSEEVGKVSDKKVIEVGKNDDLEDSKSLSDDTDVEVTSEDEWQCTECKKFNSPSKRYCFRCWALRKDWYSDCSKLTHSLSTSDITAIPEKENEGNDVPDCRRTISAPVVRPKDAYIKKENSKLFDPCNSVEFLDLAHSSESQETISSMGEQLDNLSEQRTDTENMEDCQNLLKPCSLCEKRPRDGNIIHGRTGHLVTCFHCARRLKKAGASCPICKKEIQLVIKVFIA

CC(=O)N[C@@H](CC(C)C)C(=O)N[C@H](C(=O)N[C@@H](Cc1ccccc1)C(=O)N[C@]1(C)CCCCCCC=CCCC[C@@](C)(C(=O)N[C@@H](CO)C(N)=O)NC(=O)[C@H](CC(C)C)NC(=O)[C@H](CCC(N)=O)NC(=O)[C@H](C)NC(=O)[C@H](Cc2c[nH]c3ccccc23)NC(=O)[C@H](Cc2ccc(O)cc2)NC(=O)[C@H](C(C)C)NC1=O)[C@@H](C)O [SP-266, Ac- L T F $r8 V Y W A Q L $ S -NH2] (Ac-LTF[R8]VYWAQL[S5]S-NH2; staple 4-11 (inferred))
IC50 (HDMx): 0.301 µM

CC(=O)N[C@@H](CC(C)C)C(=O)N[C@H](C(=O)N[C@@H](C)C(=O)N[C@]1(C)CCCCCCn2nncc2CCC[C@@](C)(C(=O)N[C@@H](CO)C(=O)N[C@@H](C)C(=O)N[C@@H](C)C(N)=O)NC(=O)[C@H](CC2CCC2)NC(=O)[C@H](CCC(N)=O)NC(=O)[C@H](C)NC(=O)[C@H](Cc2c[nH]c3ccccc23)NC(=O)[C@H](Cc2ccc(O)cc2)NC(=O)[C@H](CCC(=O)O)NC1=O)[C@@H](C)O [SP459, Ac-LTA$5rn6EYWAQCba$5a5SAA-NH2]
Ki (MDM2): > 1 µM
Ki (MDMX): > 1 µM

287 (LTFAEYWAQAAAAIA; not fully specified; Ac, NH2, staple, difluoro-Phe, Cba; N-term Ac; MOD_RES (3)..(3): 3,4-difluoro-Phe; MOD_RES (4)..(4): Alpha-Me R-azide 1,4 triazole (6 carbon) alanine olefin amino acid connected by an all-carbon crosslinker comprising one double bond; misc_feature (4)..(11): C) [compound 287]
caspase 0.3 uM ([1]; 0.3 uM): 1
caspase 1 uM ([1]; 1 uM): 1
caspase 3 uM ([1]; 3 uM): 3
caspase 10 uM ([1]; 10 uM): 11
caspase 30 uM ([1]; 30 uM): 23
6.25 uM % Lysed cells (1 h LDH) (SJSA-1 cells): 0%
25 uM % Lysed cells (1 h LDH) (SJSA-1 cells): 11%
50 uM % Lysed cells (1 h LDH) (SJSA-1 cells): 56%

CC(=O)N[C@@H](CC(C)C)C(=O)N[C@H](C(=O)N[C@@H](Cc1ccccc1)C(=O)N[C@]1(C)CCCCCCn2nncc2CCC[C@@](C)(C(=O)N[C@@H](CO)C(=O)N[C@@H](C)C(=O)N[C@@H](C)C(N)=O)NC(=O)[C@H](CC2CCC2)NC(=O)[C@H](CCC(N)=O)NC(=O)[C@H](C)NC(=O)[C@H](Cc2c[nH]c3ccccc23)NC(=O)[C@H](Cc2ccc(O)cc2)NC(=O)[C@H](CCC(=O)O)NC1=O)[C@@H](C)O [SP456, Ac-LTF$5rn6EYWAQCba$5a5SAA-NH2]
Ki (MDM2): < 0.01 µM
Ki (MDMX): 0.01 to 0.1 µM

414 (LTFAXYWAQLAAALA; not fully specified; Ac, NH2, staple, Cou4, Nle; N-term Ac; MOD_RES (4)..(4): Alpha-Me R-azide 1,4 triazole (6 carbon) alanine olefin amino acid connected by an all-carbon crosslinker comprising one double bond; misc_feature (4)..(11): Crosslink between residues; MOD_RES () [compound 414]
6.25 uM % Lysed cells (1 h LDH) (SJSA-1 cells): 3%
25 uM % Lysed cells (1 h LDH) (SJSA-1 cells): 2%
50 uM % Lysed cells (1 h LDH) (SJSA-1 cells): 2%

CC(=O)N[C@@H](CC(C)C)C(=O)N[C@H](C(=O)N[C@@H](Cc1ccccc1)C(=O)N[C@]1(C)CCCCCCC=CCCC[C@@](C)(C(=O)N[C@@H](CO)C(N)=O)NC(=O)[C@H](CC(C)C)NC(=O)[C@H](C)NC(=O)[C@H](C)NC(=O)[C@H](Cc2c[nH]c3ccccc23)NC(=O)[C@H](Cc2ccc(O)cc2)NC(=O)[C@H](C)NC1=O)[C@@H](C)O [SP-351, Ac- L T F $r8 A Y W A A L $ S -NH2] (Ac-LTF[R8]AYWAAL[S5]S-NH2; staple 4-11 (inferred))
IC50 (HDM2): 0.0472 µM
IC50 (HDMx): 0.143 µM

CC(=O)N[C@@H](CC(C)C)C(=O)N[C@H](C(=O)N[C@@H](C)C(=O)N[C@]1(C)CCCCCCn2cc(nn2)CCC[C@@](C)(C(=O)N[C@@H](CO)C(=O)N[C@@H](C)C(=O)N[C@@H](C)C(N)=O)NC(=O)[C@H](CC2CCC2)NC(=O)[C@H](CCC(N)=O)NC(=O)[C@H](C)NC(=O)[C@H](Cc2c[nH]c3ccccc23)NC(=O)[C@H](Cc2ccc(O)cc2)NC(=O)[C@H](CCC(=O)O)NC1=O)[C@@H](C)O [SP460, Ac-LTA$4rn6EYWAQCba$4a5SAA-NH2]
Ki (MDM2): > 1 µM
Ki (MDMX): > 1 µM

CCCC[C@H](NC(=O)[C@H](C)NC(=O)[C@H](C)NC(=O)[C@]1(C)CCCc2cn(nn2)CCCCCC[C@@](C)(NC(=O)[C@H](Cc2ccccc2)NC(=O)[C@@H](NC(=O)[C@H](CC(C)C)NC(C)=O)[C@@H](C)O)C(=O)N[C@@H](C)C(=O)N[C@@H](Cc2ccc(O)cc2)C(=O)N[C@@H](Cc2c[nH]c3ccccc23)C(=O)N[C@@H](C)C(=O)N[C@@H](CCC(N)=O)C(=O)N[C@@H](CC(C)C)C(=O)N1)C(=O)N[C@@H](C)C(N)=O [SP449, Ac-LTF$4rn6AYWAQL$4a5AANleA-NH2]
IC50 (MDM2): < 0.01 µM
Ki (MDM2): < 0.01 µM
IC50 (MDMX): < 0.01 µM
Ki (MDMX): < 0.01 µM

CC(=O)N[C@@H](CC(C)C)C(=O)N[C@H](C(=O)N[C@@H](Cc1ccccc1)C(=O)N[C@]1(C)CCCCCCn2nnc(c2I)CCC[C@@](C)(C(=O)N[C@@H](CO)C(=O)N[C@@H](C)C(=O)N[C@@H](C)C(N)=O)NC(=O)[C@H](CC2CCC2)NC(=O)[C@H](CCC(N)=O)NC(=O)[C@H](C)NC(=O)[C@H](Cc2c[nH]c3ccccc23)NC(=O)[C@H](Cc2ccc(O)cc2)NC(=O)[C@H](CCC(=O)O)NC1=O)[C@@H](C)O [SP457, Ac-LTF$4rn6EYWAQCba5I-$4a5SAA-NH2]
Ki (MDM2): < 0.01 µM
Ki (MDMX): < 0.01 µM

CC(=O)N[C@@H](Cc1ccccc1)C(=O)N[C@]1(C)CCCCCCC=CCCC[C@@](C)(C(=O)N[C@@H](C)C(N)=O)NC(=O)[C@H](CC(C)C)NC(=O)C2(CC2)NC(=O)[C@H](CCC(=O)O)NC(=O)[C@H](Cc2c[nH]c3cc(Cl)ccc23)NC(=O)[C@H](Cc2ccc(O)cc2)NC(=O)[C@H](C)NC1=O [SP-128, Ac- F $r8 A Y 6clW E Ac3c L $ A -NH2] (Ac-F[R8]AY[Trp(6-Cl)]E[Ac3c]L[S5]A-NH2; staple 2-9 (inferred))
IC50 (HDM2): 0.114 µM

CC(=O)N[C@@H](CC(C)C)C(=O)N[C@H](C(=O)N[C@@H](Cc1ccccc1)C(=O)N[C@]1(C)CCCCCC/C=C/CCC[C@@](C)(C(=O)N[C@@H](CO)C(N)=O)NC(=O)[C@H](CC(C)C)NC(=O)[C@H](CCC(N)=O)NC(=O)[C@H](C)NC(=O)[C@H](Cc2c[nH]c3ccccc23)NC(=O)[C@H](Cc2ccc(O)cc2)NC(=O)[C@H](C)NC1=O)[C@@H](C)O [SP-190, Ac- L T F $er8 A Y W A Q L $e S -NH2] (Ac-LTF[R8]AYWAQL[S5]S-NH2; staple (E) 4-11 (inferred))
IC50 (HDM2): 0.0749 µM
IC50 (HDMx): 0.097 µM

CC(=O)N[C@@H](Cc1c[nH]c2ccccc12)C(=O)N[C@H](C(=O)N[C@@H](Cc1ccccc1)C(=O)N[C@]1(C)CCCCCCC=CCCC[C@@](C)(C(=O)N[C@@H](CO)C(N)=O)NC(=O)[C@H](CC(C)C)NC(=O)[C@H](CCC(N)=O)NC(=O)[C@H](C)NC(=O)[C@H](Cc2c[nH]c3ccccc23)NC(=O)[C@H](Cc2ccc(O)cc2)NC(=O)[C@H](Cc2c[nH]cn2)NC1=O)[C@@H](C)O [SP-256, Ac- W T F $r8 H Y W A Q L $ S -NH2] (Ac-WTF[R8]HYWAQL[S5]S-NH2; staple 4-11 (inferred))
IC50 (HDMx): 0.204 µM

413 (LTFAXYWAQLAAALA; not fully specified; Ac, NH2, staple, Cou4, Nle; N-term Ac; MOD_RES (4)..(4): Alpha-Me R-azide 1,4 triazole (6 carbon) alanine olefin amino acid connected by an all-carbon crosslinker comprising one double bond; misc_feature (4)..(11): Crosslink between residues; MOD_RES () [compound 413]
6.25 uM % Lysed cells (1 h LDH) (SJSA-1 cells): 5%
25 uM % Lysed cells (1 h LDH) (SJSA-1 cells): 3%
50 uM % Lysed cells (1 h LDH) (SJSA-1 cells): 3%

CC(=O)N[C@@H](CC(C)C)C(=O)N[C@H](C(=O)N[C@@H](Cc1ccccc1)C(=O)N[C@]1(C)CCCCCCn2nnc(c2-c2ccccc2)CCC[C@@](C)(C(=O)N[C@@H](CO)C(=O)N[C@@H](C)C(=O)N[C@@H](C)C(N)=O)NC(=O)[C@H](CC2CCC2)NC(=O)[C@H](CCC(N)=O)NC(=O)[C@H](C)NC(=O)[C@H](Cc2c[nH]c3ccccc23)NC(=O)[C@H](Cc2ccc(O)cc2)NC(=O)[C@H](CCC(=O)O)NC1=O)[C@@H](C)O [SP465, Ac-LTF$4rn6EYWAQCba5Ph-$4a5SAA-NH2]
Ki (MDM2): < 0.01 µM
Ki (MDMX): < 0.01 µM

CC(=O)N[C@@H](CC(C)C)C(=O)N[C@H](C(=O)N[C@@H](Cc1ccccc1)C(=O)N[C@]1(C)CCCCCCC=CCCC[C@@](C)(C(=O)N[C@@H](CO)C(N)=O)NC(=O)[C@H](CC(C)C)NC(=O)[C@H](CCC(N)=O)NC(=O)[C@H](C)NC(=O)[C@H](Cc2c[nH]c3ccccc23)NC(=O)[C@H](Cc2ccc(O)cc2)NC(=O)[C@H](Cc2ccccc2)NC1=O)[C@@H](C)O [SP-267, Ac- L T F $r8 F Y W A Q L $ S -NH2] (Ac-LTF[R8]FYWAQL[S5]S-NH2; staple 4-11 (inferred))
IC50 (HDM2): 0.191 µM
